Consider 37 compounds from PMC8765781, “A platform of assays for the discovery of anti-Zika small-molecules with activity in a 3D-bioprinted outer-blood-retina model” (PLoS ONE, 2022).

Read-outs that look alike come from different tables or passages of the source.

This test concerns wild-type ZIKV (Ugandan MR766 strain) in Vero cells. Put plainly: ZIKV cytopathic effect (CPE) inhibition qHTS assay, CellTiter-Glo readout. To be noted: for AC50: Zika virus, Vero. In kind it is cell-based, Zika virus.
Setting [1] is: read-out: Log AC50 (M) (converted).

The AC50 is the midpoint of the concentration-response curve, whichever way the signal moves. With `COc1c(Cl)cc2c([nH]c3cnccc32)c1NC(=O)c1cccnc1C` [NCGC00263021-04], the “CC-v2 (curve class classification of the dose response curve)” value (shortened to “CC-v2”) is -2.2, the Efficacy is -34.501 and half-maximal activity (AC50) was put at 6.51e-05 M. Also, the AC50 under setting [1] was 6.51e-05 M.
`O=C1[C@H](CC[C@H](O)c2ccc(F)cc2)[C@@H](c2ccc(O)cc2)N1c1ccc(F)cc1` [NCGC00263575-07] had an Efficacy of -30.405 and an AC50 of 2.91e-05 M. In addition, the AC50 under setting [1] is 2.91e-05 M.
Turning to `CCN(CC)C(=O)Nc1ccc(OCC(O)CNC(C)(C)C)c(C(C)=O)c1` (centres unmarked) [NCGC00344562-02], the “CC-v2” value was -3, the Efficacy is recorded as -33.868 and half-maximal activity (AC50) was put at 3.26e-05 M. The AC50 under setting [1] was 3.26e-05 M.
Compound `CN1CCC(COc2cnc(-c3cccc(Cn4nc(-c5cccc(C#N)c5)ccc4=O)c3)nc2)CC1` [NCGC00345793-08] yielded an Efficacy of -35.437 and an AC50 of 6.51e-05 M. The AC50 under setting [1] is 6.51e-05 M.
Consider `CC[C@H](CC#N)OC(=O)N[C@@H](C)c1cccc(NC(=O)Nc2ccc(-c3cnco3)c(OC)c2)c1` [NCGC00345803-05], for which the Efficacy is listed as -31.6 and the activity was half-maximal at 7.31e-05 M (AC50). The AC50 under setting [1] is 7.31e-05 M.
Compound `COc1cc(Nc2nc3ccccc3nc2N[S+](=O)([O-])c2ccc(NC(=O)c3ccc(C)c(OC)c3)cc2)cc(OC)c1` [NCGC00346541-08] returned an Efficacy of -33.022 and an AC50 of 5.8e-05 M. In addition, the AC50 under setting [1] was 5.8e-05 M.
As to `C[C@H]1[C@H](C)CC[C@]2(C(=O)O)CC[C@]3(C)C(=CC[C@@H]4[C@@]5(C)C[C@@H](O)[C@H](O)[C@@](C)(CO)[C@@H]5CC[C@]43C)[C@H]12` [NCGC00346584-02], the Efficacy is -33.569 and the concentration at half-maximal activity (AC50) amounted to 5.8e-05 M. In addition, the AC50 under setting [1] was 5.8e-05 M.
In turn, `Cn1cc(-c2ccncc2)c(-c2ccc(OCc3ccc4ccccc4n3)cc2)n1` [NCGC00346630-05] yielded an Efficacy of -23.654 and an AC50 of 2.59e-05 M. In addition, the AC50 under setting [1] was 2.59e-05 M.
`O=C(CCN1CCN(C(=O)OCc2cc(Cl)cc(Cl)c2)CC1)c1ccc2[nH]c(=O)oc2c1` [NCGC00346939-05] returned an Efficacy of -25.5 and an AC50 of 7.31e-05 M. Besides, the AC50 under setting [1] was 7.31e-05 M.
With `OCCCNc1cc(-c2ccnc(Nc3cccc(Cl)c3)n2)ccn1` [NCGC00346940-02], the “CC-v2” value is -2.1, the Efficacy is on record as -105.653 and the AC50 came to 6.51e-05 M. Also, the AC50 under setting [1] is 6.51e-05 M.
For `c1ccc(CNc2nc(N3CCOc4ccccc43)nc3c2CCCC3)cc1` [NCGC00347065-03], the Efficacy is listed as -32.702 and the AC50 worked out at 5.17e-05 M. Also, the half-maximal activity concentration (AC50) under setting [1] is 5.17e-05 M.
For `CC1=CC(=O)[C@@H](O)[C@@]2(C)C1C[C@H]1OC(=O)[C@H](O)[C@@]3(O)[C@@H](C)[C@@H](O)[C@H](O)C2[C@@]13C` (some centres unmarked) [NCGC00347801-02], the “CC-v2” value is -1.2, the Efficacy is -51.479 and half-maximal activity (AC50) was put at 1.43e-05 M. For the same compound, the AC50 under setting [1] was 1.43e-05 M.
In the case of `C=C(C)C(=O)O[C@H]1[C@@H]2[C@H](C)C(=O)O[C@@H]2C[C@@H](C)[C@@H]2C=CC(=O)[C@]21C` [NCGC00347858-02], the “CC-v2” value is given as -2.1, the Efficacy is -111.628 and the half-maximal activity concentration (AC50) turned out to be 4.53e-05 M. In addition, the AC50 under setting [1] was 4.53e-05 M.
Regarding `Nc1c([S+](=O)([O-])c2ccccc2)c2nc3ccccc3nc2n1-c1ccc(F)cc1` [NCGC00351779-01], the Efficacy is -26.957 and the AC50 was determined as 7.31e-05 M. The AC50 under setting [1] was 7.31e-05 M.
In the case of `CCCNc1ccc2ncc(-c3ccc4[nH]ncc4c3)n2n1` [NCGC00370724-05], the “CC-v2” value is recorded as -2.2, the Efficacy is on record as -62.08 and the activity was half-maximal at 5.8e-05 M (AC50). Besides, the AC50 under setting [1] was 5.8e-05 M.
`Cc1cc(C)c2nc(-c3ccccn3)cc(C(=O)Nc3ccc([S+](=O)([O-])Nc4onc(C)c4C)cc3)c2c1` [NCGC00370745-03] showed an Efficacy of -23.798 and an AC50 of 3.26e-05 M. Further, under setting [1], the AC50 is 3.26e-05 M.
Take `O=C(c1cn(Cc2cncn2Cc2ccc(Br)cc2)cc1-c1cccc2ccccc12)N1CCOCC1` [NCGC00370772-05]: the “CC-v2” value was -2.2, the Efficacy is reported as -38.989 and the AC50 came to 3.66e-05 M. The AC50 under setting [1] was 3.66e-05 M.
On to `CCN(CC)C(=O)c1ccc(Nc2nc(OCC3CCCCC3)c3nc[nH]c3n2)cc1` [NCGC00370819-01], for which the Efficacy is -42.267 and the AC50 stood at 4.61e-05 M. In addition, under setting [1], the AC50 is 4.61e-05 M.
As for `Cc1nc[nH]c1C1CCN(c2nc3cccc4c3n2CCC4=O)CC1` [NCGC00370838-01], the “CC-v2” value is reported as -3, the Efficacy is -41.62 and the activity was half-maximal at 1.84e-05 M (AC50). Moreover, the AC50 under setting [1] is 1.84e-05 M.
Consider `CCCCCOc1cc2c(cc1-c1cc(/C=C/C(=O)O)ccc1O)C(C)(C)CCC2(C)C` [NCGC00370868-01], for which the AC50 was 1.84e-05 M (from Hill fit of the response curve, 50% of maximum activity response, 194 cherry-picked compounds, protocol name not given, read-out: AC50) and 1.84e-05 M (potency in log units (Molar) from Hill fit of the response curve, 194 cherry-picked compounds, protocol name not given, read-out: Log AC50 (converted)). Besides, the Efficacy (difference between neutral response and maximum compound response) is on record as -36.339.
Turning to `C[S+](=O)([O-])NC[C@H]1CC[C@H](Nc2nc3c(s2)CCSc2ccccc2-3)CC1` [NCGC00370875-01], the “CC-v2” value is on record as -3, the Efficacy is -44.692 and the AC50 was determined as 7.31e-05 M. Moreover, under setting [1], the AC50 was 7.31e-05 M.
In turn, `CC1(C)CC=C(c2cnc3ccccc3c2)c2cc(C(=O)Nc3ccc(C(=O)O)cc3)ccc21` [NCGC00370906-01] displayed an Efficacy of -33.992 and an AC50 of 5.17e-05 M. For the same compound, under setting [1], the concentration at half-maximal activity (AC50) is 5.17e-05 M.
Turning to `CC(C)c1cccc2c(-c3ccccc3)cc(-c3ccc(-c4ccc(C(=O)O)cc4)[nH]3)nc12` [NCGC00370963-01], the “CC-v2” value is -3, the Efficacy is -43.883 and the AC50 is 2.91e-05 M. In addition, the AC50 under setting [1] was 2.91e-05 M.
With `O=C1N(CC2CCCCN2)CCN1c1ccccc1` (centres unmarked) [NCGC00370981-01], the “CC-v2” value is on record as -3, the Efficacy is listed as -38.034 and half-maximal activity (AC50) was put at 2.91e-05 M. Besides, under setting [1], the AC50 was 2.91e-05 M.
On to `CN1CC2CN(c3ccc4oc5ccccc5c(=O)c4c3)CC2C1` (centres unmarked) [NCGC00371020-01], for which the Efficacy was -29.929 and the AC50 amounted to 3.17e-05 M. Also, the half-maximal activity concentration (AC50) under setting [1] is 3.17e-05 M.
Regarding `Cc1cc2sc(NC(=O)Cc3ccccc3)nc2cc1Cl` [NCGC00371143-05], the Efficacy is on record as -24.072 and the AC50 turned out to be 5.8e-05 M. Moreover, under setting [1], the AC50 was 5.8e-05 M.
Take `CN(C)c1cccc(-c2c3c(=O)n(-c4ccccc4Cl)[nH]c3cc(=O)n2C)c1` [NCGC00378460-08]: the Efficacy is reported as -22.536 and the AC50 was found to be 2.91e-05 M. For the same compound, the AC50 under setting [1] is 2.91e-05 M.
As for `CC(C)C(=O)c1cn(CC(=O)COc2ccc(Oc3ccccc3)cc2)c2ccc(C(=O)O)cc12` [NCGC00378619-01], the Efficacy is -17.195 and the activity was half-maximal at 1.3e-05 M (AC50). Besides, the AC50 under setting [1] is 1.3e-05 M.
On to `CCCOc1ccc([S+](=O)([O-])N2CCN(CCO)CC2)cc1-c1nc2c(CCC)cn(CC)c2c(=O)[nH]1` [NCGC00378703-02], for which the Efficacy is -30.503 and half-maximal activity (AC50) was put at 5.8e-05 M. Moreover, the AC50 under setting [1] was 5.8e-05 M.
On to `CCNC(=O)Nc1ccc(-c2nc3c(c(N4CCOC[C@@H]4C)n2)CCN(c2ncccn2)C3)cc1` [NCGC00378864-01], for which the Efficacy was -63.761 and the AC50 was determined as 2.06e-05 M. Besides, the AC50 under setting [1] is 2.06e-05 M.
In the case of `O=C(O)C[C@H]1CC[C@H](c2ccc(-c3ccc(Nc4ccc(C(F)(F)F)nc4)cn3)cc2)CC1` [NCGC00378933-01], the “CC-v2” value is listed as -3, the Efficacy is reported as -46.182 and the activity was half-maximal at 5.8e-05 M (AC50). The AC50 under setting [1] was 5.8e-05 M.
On to `Cc1cc(=O)oc2c(C=O)c(O)ccc12` [NCGC00379137-01], for which the “CC-v2” value is -2.2, the Efficacy was -45.072 and the AC50 was determined as 5.8e-05 M. Also, the AC50 under setting [1] was 5.8e-05 M.
`Nc1cccc(CNC(=O)c2ccc(Oc3ccc(OCc4cccc(F)c4)cc3)nc2)c1` [NCGC00379156-01]: the Efficacy is given as -30.412 and the AC50 was 7.31e-05 M. For the same compound, under setting [1], the AC50 was 7.31e-05 M.
As for `C=C1C(=O)CC2OC2(C)CC2OC(=O)C(=C)C2C(O)C1OC(=O)/C(C)=C\C` (centres unmarked) [NCGC00380095-01], the “CC-v2” value is reported as -3, the Efficacy is listed as -52.521 and the activity was half-maximal at 4.53e-05 M (AC50). The AC50 under setting [1] was 4.53e-05 M.
For the compound `CC(=O)OCC1OC(O[C@H]2CC[C@@]3(C)C(CC[C@]4(C)C3CC=C3[C@@H]5CC(C)(C)CC[C@]5(C(=O)O)CC[C@]34C)[C@]2(C)CO)C(O)C(O)C1OC1OC(C)C(O)C(OC2OCC(O)C(O)C2O)C1O` (some centres unmarked) [NCGC00380575-01], the Efficacy was -26.099 and the AC50 came to 7.78e-06 M. In addition, the AC50 under setting [1] is 7.78e-06 M.
With `C/C=C(\C)C(=O)O[C@H]1C=CC(=O)O[C@H]1/C=C/[C@@H](O)[C@H](C)O` [NCGC00380589-01], the Efficacy is listed as -37.007 and the activity was half-maximal at 6.51e-05 M (AC50). The half-maximal activity concentration (AC50) under setting [1] is 6.51e-05 M.
On to `CC1(C)C=CN2C(=O)C3=CCCN3C(=O)[C@@H]2C[C@@]12Nc1ccccc1C2=O` [NCGC00380729-01], for which the Efficacy is reported as -25.178 and half-maximal activity (AC50) was put at 4.53e-05 M. Moreover, the AC50 under setting [1] was 4.53e-05 M.
